Assay results: patent US5358951A, “Angiotensin II receptor blocking 2, 3, 6 substituted quinazolinones” (American Cyanamid Company, priority 1993, dated 1994)

System: vasopressor response of angiotensin II
Assay: AII Challenge: antagonism of angiotensin II vasopressor response
Format: in vivo
Details: for inhibition in vivo at 1 mg/kg: Rattus norvegicus
Outline: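 Percent antagonism is based on the systolic blood pressure rise (mmHg) to i.v. angiotensin II at 0.05 and 0.1 ug/kg. Each rat's own predose response was taken as 100%. Challenges were repeated from 30 to 300 min after i.v., i.p. or oral compound in cannulated conscious male SHR, 16-20 weeks old.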

Q: For `CCCCc1nc2ccc(C3(CO)CC4CCCN4O3)cc2c(=O)n1Cc1ccc(-c2ccccc2-c2nnn[nH]2)cc1` (stereo not drawn) [Example 80, (Trans)-2-butyl-6-[hexahydro-2-(hydroxymethyl)-Pyrrolo[1,2-b]isoxazol-2-yl]-3-[[2'-[1H-tetrazol-5-yl)[1,1'-biphenyl]-4-yl]methyl-4(3H)quinazolinone], which “Response Average Change” value (1 mg/kg P.O., AII 0.05 mcg/kg IV, 30 min post dose) is on record?
A: The value was 30 mmHg.

Q: And the “Response Average Change” value (1 mg/kg P.O., AII 0.05 mcg/kg IV, 60 min post dose)?
A: The value was 15 mmHg.

Q: What about the “Response Average Change” value (1 mg/kg P.O., AII 0.05 mcg/kg IV, 90 min post dose) of the same compound?
A: The value was 22.5 mmHg.

Q: What about the “Response Average Change” value (1 mg/kg P.O., AII 0.05 mcg/kg IV, 120 min post dose) of the same compound?
A: Its value is 10 mmHg.

Q: What about the “Response Average Change” value (1 mg/kg P.O., AII 0.05 mcg/kg IV, 180 min post dose) of the same compound?
A: Its value is 19 mmHg.

Q: And the “Response Average Change” value (1 mg/kg P.O., AII 0.05 mcg/kg IV, 240 min post dose)?
A: Its value is 17.5 mmHg.

Q: And the “Response Average Change” value (1 mg/kg P.O., AII 0.05 mcg/kg IV, 300 min post dose)?
A: The value was 30 mmHg.

Q: What about the “Response Average Change” value (1 mg/kg P.O., AII 0.1 mcg/kg IV, 30 min post dose) of the same compound?
A: Its value is 37.5 mmHg.

Q: What about the “Response Average Change” value (1 mg/kg P.O., AII 0.1 mcg/kg IV, 60 min post dose) of the same compound?
A: Its value is 32.5 mmHg.

Q: And the “Response Average Change” value (1 mg/kg P.O., AII 0.1 mcg/kg IV, 90 min post dose)?
A: The value was 27.5 mmHg.

Q: And the “Response Average Change” value (1 mg/kg P.O., AII 0.1 mcg/kg IV, 120 min post dose)?
A: The value was 22.5 mmHg.

Q: What about the “Response Average Change” value (1 mg/kg P.O., AII 0.1 mcg/kg IV, 180 min post dose) of the same compound?
A: Its value is 25 mmHg.

Q: And the “Response Average Change” value (1 mg/kg P.O., AII 0.1 mcg/kg IV, 240 min post dose)?
A: Its value is 25 mmHg.

Q: What about the “Response Average Change” value (1 mg/kg P.O., AII 0.1 mcg/kg IV, 300 min post dose) of the same compound?
A: The value was 27.5 mmHg.

Q: What about the “Response Average Change” value (1 mg/kg i.v., AII 0.05 mcg/kg IV, 30 min post dose) of the same compound?
A: Its value is 5 mmHg.

Q: What about the “Response Average Change” value (1 mg/kg i.v., AII 0.05 mcg/kg IV, 60 min post dose) of the same compound?
A: Its value is 5 mmHg.

Q: And the “Response Average Change” value (1 mg/kg i.v., AII 0.05 mcg/kg IV, 90 min post dose)?
A: The value was 9 mmHg.

Q: And the “Response Average Change” value (1 mg/kg i.v., AII 0.05 mcg/kg IV, 120 min post dose)?
A: Its value is 12.5 mmHg.

Q: And the “Response Average Change” value (1 mg/kg i.v., AII 0.05 mcg/kg IV, 180 min post dose)?
A: The value was 12.5 mmHg.

Q: What about the “Response Average Change” value (1 mg/kg i.v., AII 0.05 mcg/kg IV, 240 min post dose) of the same compound?
A: The value was 20 mmHg.

Q: And the “Response Average Change” value (1 mg/kg i.v., AII 0.05 mcg/kg IV, 300 min post dose)?
A: Its value is 16.5 mmHg.

Q: What about the “Response Average Change” value (1 mg/kg i.v., AII 0.1 mcg/kg IV, 30 min post dose) of the same compound?
A: The value was 8.5 mmHg.

Q: What about the “Response Average Change” value (1 mg/kg i.v., AII 0.1 mcg/kg IV, 60 min post dose) of the same compound?
A: The value was 10 mmHg.

Q: What about the “Response Average Change” value (1 mg/kg i.v., AII 0.1 mcg/kg IV, 90 min post dose) of the same compound?
A: Its value is 22.5 mmHg.

Q: What about the “Response Average Change” value (1 mg/kg i.v., AII 0.1 mcg/kg IV, 120 min post dose) of the same compound?
A: Its value is 17.5 mmHg.

Q: What about the “Response Average Change” value (1 mg/kg i.v., AII 0.1 mcg/kg IV, 180 min post dose) of the same compound?
A: Its value is 17.5 mmHg.

Q: And the “Response Average Change” value (1 mg/kg i.v., AII 0.1 mcg/kg IV, 240 min post dose)?
A: Its value is 22.5 mmHg.

Q: What about the “Response Average Change” value (1 mg/kg i.v., AII 0.1 mcg/kg IV, 300 min post dose) of the same compound?
A: The value was 30 mmHg.

Q: What about the inhibition in vivo at 1 mg/kg (iv, 0.5 h, 1 mg/kg i.v., AII 0.05 mcg/kg IV, 30 min post dose) of the same compound?
A: Its inhibition in vivo at 1 mg/kg is 90%.

Q: And the inhibition in vivo at 1 mg/kg (iv, 0.5 h, 1 mg/kg i.v., AII 0.1 mcg/kg IV, 30 min post dose)?
A: Its inhibition in vivo at 1 mg/kg is 83%.

Q: And the inhibition in vivo at 1 mg/kg (iv, 1 h, 1 mg/kg i.v., AII 0.05 mcg/kg IV, 60 min post dose)?
A: Its inhibition in vivo at 1 mg/kg is 90%.

Q: What about the inhibition in vivo at 1 mg/kg (iv, 1 h, 1 mg/kg i.v., AII 0.1 mcg/kg IV, 60 min post dose) of the same compound?
A: Its inhibition in vivo at 1 mg/kg is 80%.

Q: What about the inhibition in vivo at 1 mg/kg (iv, 2 h, 1 mg/kg i.v., AII 0.05 mcg/kg IV, 120 min post dose) of the same compound?
A: The inhibition in vivo at 1 mg/kg was 76%.

Q: And the inhibition in vivo at 1 mg/kg (iv, 2 h, 1 mg/kg i.v., AII 0.1 mcg/kg IV, 120 min post dose)?
A: The inhibition in vivo at 1 mg/kg was 65%.

Q: What about the inhibition in vivo at 1 mg/kg (iv, 3 h, 1 mg/kg i.v., AII 0.05 mcg/kg IV, 180 min post dose) of the same compound?
A: Its inhibition in vivo at 1 mg/kg is 76%.

Q: And the inhibition in vivo at 1 mg/kg (iv, 3 h, 1 mg/kg i.v., AII 0.1 mcg/kg IV, 180 min post dose)?
A: Its inhibition in vivo at 1 mg/kg is 65%.

Q: What about the inhibition in vivo at 1 mg/kg (iv, 4 h, 1 mg/kg i.v., AII 0.05 mcg/kg IV, 240 min post dose) of the same compound?
A: Its inhibition in vivo at 1 mg/kg is 62%.

Q: What about the inhibition in vivo at 1 mg/kg (iv, 4 h, 1 mg/kg i.v., AII 0.1 mcg/kg IV, 240 min post dose) of the same compound?
A: Its inhibition in vivo at 1 mg/kg is 55%.

Q: What about the inhibition in vivo at 1 mg/kg (iv, 5 h, 1 mg/kg i.v., AII 0.05 mcg/kg IV, 300 min post dose) of the same compound?
A: The inhibition in vivo at 1 mg/kg was 69%.

Q: And the inhibition in vivo at 1 mg/kg (iv, 5 h, 1 mg/kg i.v., AII 0.1 mcg/kg IV, 300 min post dose)?
A: Its inhibition in vivo at 1 mg/kg is 40%.

Q: What about the inhibition in vivo at 1 mg/kg (iv, […], 1 mg/kg i.v., AII 0.05 mcg/kg IV, 90 min post dose) of the same compound?
A: Its inhibition in vivo at 1 mg/kg is 83%.

Q: What about the inhibition in vivo at 1 mg/kg (iv, […], 1 mg/kg i.v., AII 0.1 mcg/kg IV, 90 min post dose) of the same compound?
A: Its inhibition in vivo at 1 mg/kg is 55%.

Q: What about the inhibition in vivo at 1 mg/kg (po, 0.5 h, 1 mg/kg P.O., AII 0.05 mcg/kg IV, 30 min post dose) of the same compound?
A: The inhibition in vivo at 1 mg/kg was 25%.

Q: And the inhibition in vivo at 1 mg/kg (po, 0.5 h, 1 mg/kg P.O., AII 0.1 mcg/kg IV, 30 min post dose)?
A: The inhibition in vivo at 1 mg/kg was 6%.

Q: And the inhibition in vivo at 1 mg/kg (po, 1 h, 1 mg/kg P.O., AII 0.05 mcg/kg IV, 60 min post dose)?
A: Its inhibition in vivo at 1 mg/kg is 63%.

Q: And the inhibition in vivo at 1 mg/kg (po, 1 h, 1 mg/kg P.O., AII 0.1 mcg/kg IV, 60 min post dose)?
A: The inhibition in vivo at 1 mg/kg was 19%.

Q: What about the inhibition in vivo at 1 mg/kg (po, 2 h, 1 mg/kg P.O., AII 0.05 mcg/kg IV, 120 min post dose) of the same compound?
A: Its inhibition in vivo at 1 mg/kg is 75%.

Q: And the inhibition in vivo at 1 mg/kg (po, 2 h, 1 mg/kg P.O., AII 0.1 mcg/kg IV, 120 min post dose)?
A: Its inhibition in vivo at 1 mg/kg is 44%.

Q: What about the inhibition in vivo at 1 mg/kg (po, 3 h, 1 mg/kg P.O., AII 0.05 mcg/kg IV, 180 min post dose) of the same compound?
A: Its inhibition in vivo at 1 mg/kg is 53%.

Q: What about the inhibition in vivo at 1 mg/kg (po, 3 h, 1 mg/kg P.O., AII 0.1 mcg/kg IV, 180 min post dose) of the same compound?
A: Its inhibition in vivo at 1 mg/kg is 38%.

Q: What about the inhibition in vivo at 1 mg/kg (po, 4 h, 1 mg/kg P.O., AII 0.05 mcg/kg IV, 240 min post dose) of the same compound?
A: The inhibition in vivo at 1 mg/kg was 56%.

Q: What about the inhibition in vivo at 1 mg/kg (po, 4 h, 1 mg/kg P.O., AII 0.1 mcg/kg IV, 240 min post dose) of the same compound?
A: The inhibition in vivo at 1 mg/kg was 38%.

Q: And the inhibition in vivo at 1 mg/kg (po, 5 h, 1 mg/kg P.O., AII 0.05 mcg/kg IV, 300 min post dose)?
A: Its inhibition in vivo at 1 mg/kg is 25%.

Q: And the inhibition in vivo at 1 mg/kg (po, 5 h, 1 mg/kg P.O., AII 0.1 mcg/kg IV, 300 min post dose)?
A: Its inhibition in vivo at 1 mg/kg is 31%.

Q: And the inhibition in vivo at 1 mg/kg (po, […], 1 mg/kg P.O., AII 0.05 mcg/kg IV, 90 min post dose)?
A: The inhibition in vivo at 1 mg/kg was 44%.

Q: And the inhibition in vivo at 1 mg/kg (po, […], 1 mg/kg P.O., AII 0.1 mcg/kg IV, 90 min post dose)?
A: The inhibition in vivo at 1 mg/kg was 31%.
